Results from US11169138B2, “Nanopores with internal protein adaptors” (priority 2015, dated 2021).
Entries after “also recorded” stand apart in the source; their conditions may differ.

Legend:
[1] = molecular target: T1, AlkB-Fe^++ (E. coli AlkB demethylase) (Escherichia coli, UniProt P05050); test: Ligand binding to AlkB-Fe++ confined inside ClyA-AS nanopore, single-channel ionic current recording; details: for L2B ΔIRES % (ligand-induced current enhancement from L2): 150 mM NaCl, 15 mM Tris HCl pH 8.0, 28° C.; for L2B ΔIRES % (ligand-induced current enhancement from L2) / mean duration (toff) of ligand-induced events: ligand cis
T1 construct: made in house; host or cells: E. cloni EXPRESS BL21(DE3) E. coli
T1 sequence (P05050 with tags, fused parts or gaps): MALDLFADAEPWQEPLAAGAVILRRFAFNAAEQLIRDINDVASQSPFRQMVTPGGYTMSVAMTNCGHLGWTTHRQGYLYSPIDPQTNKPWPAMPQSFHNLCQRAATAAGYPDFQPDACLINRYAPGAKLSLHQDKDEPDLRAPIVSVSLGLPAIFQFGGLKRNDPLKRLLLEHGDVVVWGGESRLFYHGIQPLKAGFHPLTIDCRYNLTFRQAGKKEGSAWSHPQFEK
Procedure: (§1) The applied potential refers to the potential of the trans electrode. ClyA-AS nanopores were inserted into lipid bilayers from the cis compartment, which was connected to the ground electrode. The two compartments were separated by a 25 μm thick polytetrafluoroethylene film (Goodfellow Cambridge Limited) containing an orifice of ˜100 μm in diameter. The aperture was pretreated with ˜5 μl of 10% hexadecane in pentane and a bilayer was formed by the addition of ˜10 μL of 1,2-diphytanoyl-sn-glycero-3-phosphocholine (DPhPC) in pentane (10 mg/mL) to both electrophysiology chambers. Typically, the addition of 0.01-0.1 ng of oligomeric ClyA-AS to the cis compartment (0.5 mL) was sufficient to obtain a single channel. […] Electrical recordings were carried out in 150 mM NaCl, 15 mM Tris.HCl pH 8.0 (AlkB experiments) or 150 mM NaCl, 15 mM Tris.HCl pH 7.5 (DHFR experiments). The temperature of the recording chamber was maintained at 28° C. by water circulating through a metal case in direct contact with the bottom and sides of the chamber.
(§2) Electrical signals from planar bilayer recordings were amplified using an Axopatch 200B patch clamp amplifier (Axon Instruments) and digitized with a Digidata 1440 A/D converter (Axon Instruments). Data were recorded by using the Clampex 10.4 software (Molecular Devices) and the subsequent analysis was carried out with the Clampfit software (Molecular Devices). Electrical recordings were performed in 150 mM NaCl, 15 mM Tris.HCl pH 8.0 (AlkB) or pH 7.5 (DHFR) by applying a 2 kHz low-pass Bessel filter and a 10 kHz sampling rate. For further analysis traces were filtered digitally with a Bessel (8-pole) low-pass filter with a 50 Hz cut-off. Residual current values (IRES%) were calculated from blocked pore current values (IB) and open pore current values (IO) as IRES %=100*IB/IO. IB and IO were determined from Gaussian fits to all point current histograms (0.05 pA bin size) for at least 15 individual protein blockades. ΔIRES % values were calculated from IRES % using propagation of errors.
(§3) Current transitions from level 1 were analyzed with the “single-channel search” function in Clampfit. The detection threshold to collect the ligand-induced events for AlkB was set to 4 pA and events shorter than 10 ms were ignored. […] The resulting event dwell times (toff) and the time between events (ton) were binned together as cumulative distributions and fitted to a single exponential to retrieve the ligand-induced lifetimes (τoff) and the ligand-induced event frequencies (f=1/τon). The process of event collection was monitored manually. For AlkB, final values of τon and τoff were based on average values derived from at least 3 single channel experiments at each concentration. Each experiment analysed more than 8 AlkB blockades. At the low ligand concentrations (0.2 mM) about 100 ligand-binding events were measured. Otherwise more than 150 events were collected. […] Subsequently, the ton values were binned together as cumulative distributions and fitted to a single exponential fit to retrieve characteristic τon values. The values for koff represented in FIG. 2b and FIG. 4b were determined by taking the average±standard deviations of 1/toff of at least 3 single channel experiments. The values of the association rate constants (kon) were determined from the slope of the linear regression curves calculated from the dependency of the event frequencies (f=1/τon) on the ligand concentration (OriginLab, FIGS. 2b and 4b). Graphs were made with Origin (OriginLab Corporation) or Clampfit software (Molecular Devices).
9, 872-877; Bleijlevens, B. et al. (2012) Biochem. 2012, 51, 3334-3341].

N120D-AlkB-Fe^++ = molecular target: T2, N120D-AlkB-Fe^++ (Escherichia coli, UniProt P05050, N120D); test: Ligand binding to N120D AlkB mutant confined inside ClyA-AS nanopore; parameters: species or system E. coli; details: 7.2 mM 2-OG, N=4
T2 construct: additional alanine after the starting methionine (cloning residue, between Met1 and Leu2) (N); Strep-tag via glycine-serine-alanine linker (C); made in house; host or cells: pT7-SC1 plasmid; expression host not restated for the mutant
T2 sequence (P05050 1-216 N120D): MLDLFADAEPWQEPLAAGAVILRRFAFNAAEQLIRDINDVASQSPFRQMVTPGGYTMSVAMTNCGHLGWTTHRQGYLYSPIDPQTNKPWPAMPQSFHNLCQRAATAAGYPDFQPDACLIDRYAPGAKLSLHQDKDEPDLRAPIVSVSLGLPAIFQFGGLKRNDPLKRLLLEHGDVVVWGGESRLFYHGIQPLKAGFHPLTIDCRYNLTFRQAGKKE

DHFRtag:MTX = molecular target: T3, DHFRtag:MTX (Escherichia coli, UniProt P0ABQ4, C152S/C85A); test: Ligand binding to DHFRtag:MTX complex confined inside ClyA-AS nanopore, single-channel recording; parameters: species or system E. coli; details: for L2B ΔIRES %: from L2
T3 construct: Met-Ala-Ser-Ala (N); made in house; host or cells: E. cloni EXPRESS BL21(DE3) E. coli
T3 sequence (P0ABQ4 1-159 C85A/C152S): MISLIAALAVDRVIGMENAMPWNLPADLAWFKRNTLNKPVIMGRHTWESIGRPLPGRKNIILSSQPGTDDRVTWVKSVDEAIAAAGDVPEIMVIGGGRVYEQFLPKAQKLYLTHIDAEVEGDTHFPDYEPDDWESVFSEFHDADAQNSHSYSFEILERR
Procedure: as §1, §2, §3

DHFR = molecular target: T4, DHFR (Escherichia coli, UniProt P0ABQ4, C152S/C85A); test: Ligand effects on DHFR (untagged construct) blockades of ClyA-AS nanopore; assay type: binding, E. coli; details: 20 μM NADPH cis after 400 nM MTX, −90 mV
T4 construct: Met-Ala-Ser-Ala (N); made in house; host or cells: E. cloni EXPRESS BL21(DE3) E. coli
T4 sequence (P0ABQ4 1-159 C85A/C152S): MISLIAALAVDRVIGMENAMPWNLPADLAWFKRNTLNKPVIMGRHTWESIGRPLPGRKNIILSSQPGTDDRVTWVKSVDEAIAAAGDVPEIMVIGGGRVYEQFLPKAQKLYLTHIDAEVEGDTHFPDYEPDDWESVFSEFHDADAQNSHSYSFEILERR

[2] = −90 mV, pH 7.5, 28° C., ligand trans

SMILES: O=C(O)CCC(=O)C(=O)O [2-OG, 2-oxoglutarate]
- L2B ΔIRES % (ligand-induced current enhancement from L2) ([1]; −60 mV): +1.7 ± 1.2%
- mean duration (toff) of ligand-induced events ([1]; −60 mV): 1.7 ± 0.5 s
- koff −60 mV ([1]; −60 mV, pH 8.0, 28° C.): 0.66 ± 0.33 s⁻¹
- kon −60 mV ([1]; −60 mV, pH 8.0, 28° C., slope of event frequency vs concentration): 1.8 ± 0.3 × 10^3 s^−1 M^−1
- current transitions in N120D-AlkB-Fe++ blockades (N120D-AlkB-Fe^++): did not induce current transitions

SMILES: O=C(O)CNC(=O)C(=O)O [N-OG, N-oxalylglycine]
- koff ([1]; pH 8, read-out: koff −60 mV): 0.57 ± 0.1 s⁻¹
- kon ([1]; pH 8, read-out: kon −60 mV): 1200 ± 300000 M⁻¹ s⁻¹
- L2B ΔIRES % (ligand-induced current enhancement from L2) ([1]; −60 mV): +1.7 ± 1.0%
- mean duration (toff) of ligand-induced events ([1]; −60 mV): 1.8 ± 0.4 s

SMILES: NC(=O)c1ccc[n+]([C@@H]2O[C@H](COP(=O)([O-])OP(=O)(O)OC[C@H]3O[C@@H](n4cnc5c(N)ncnc54)[C@H](OP(=O)(O)O)[C@@H]3O)[C@@H](O)[C@H]2O)c1 [NADP+]
- DHFRtag:MTX blockades not responding to the ligand (DHFRtag:MTX; NADP+ added in trans): Approximately 45%
- τM:N+ (dwell of NADP+ events) (DHFRtag:MTX; −90 mV, NADP+ trans): 102 ± 11 ms
- koff −90 mV (DHFRtag:MTX; −90 mV, pH 7.5, 28° C.): 10 ± 1 s⁻¹
- kon −90 mV (DHFRtag:MTX; −90 mV, pH 7.5, 28° C.): 2.1 ± 0.3 × 10^6 s^−1 M^−1
- L2B ΔIRES % (DHFRtag:MTX; [2]): +4.7 ± 0.9%

SMILES: NC(=O)C1=CN([C@@H]2O[C@H](COP(=O)(O)OP(=O)(O)OC[C@H]3O[C@@H](n4cnc5c(N)ncnc54)[C@H](OP(=O)(O)O)[C@@H]3O)[C@@H](O)[C@H]2O)C=CC1 [NADPH]
- enhancement of residual ionic current on NADPH binding (DHFRtag:MTX; DHFR10+/4+/tag:MTX complexes, −90 mV): ~4 pA
- DHFRtag:MTX blockades with "long" NADPH events (DHFRtag:MTX; NADPH trans): ~55%
- DHFRtag:MTX blockades with "short" NADPH events (DHFRtag:MTX; NADPH trans): Approximately 45%
- kon, "long" NADPH events (DHFRtag:MTX; −90 mV): 4.8e+06 ± 1.2e+06 M⁻¹ s⁻¹
- kon, "short" NADPH events (DHFRtag:MTX; −90 mV): 5.8e+06 ± 1.2e+06 M⁻¹ s⁻¹
- ΔIRES %, "long" NADPH events (DHFRtag:MTX; −90 mV): 2.7±0.7%
- ΔIRES %, "short" NADPH events (DHFRtag:MTX; −90 mV): 2.2±0.9%
- lifetime of "long" NADPH binding events (DHFRtag:MTX; −90 mV, NADPH trans): > 3 s
- lifetime of "short" NADPH binding events (DHFRtag:MTX; −90 mV, NADPH trans): 38.5 ± 0.8 ms
- kon −90 mV (DHFRtag:MTX; −90 mV, pH 7.5, 28° C.): 4.8 ± 1.2 × 10^6 s^−1 M^−1
- L2B ΔIRES % (first NADPH column as printed) (DHFRtag:MTX; [2]): +2.7 ± 0.7%
- L1B ΔIRES % (DHFRtag:MTX; −90 mV, pH 7.5, 28° C., ligand trans, from L1): +2.7±0.7%
- L2B ΔIRES % (DHFRtag:MTX; [2]): +5.4 ± 1.0%
- effect of NADPH on DHFR blockades in presence of MTX (DHFR): abolished; also recorded: nearly total elimination of the DHFR blockades
